This is an account of results in patent US20220348565A1, “PHARMACEUTICAL COMPOUNDS” (SENTINEL ONCOLOGY LIMITED, priority 2019, published 2022).

What all share (assay): DiscoverX KinomeScreen kinase selectivity competition binding assay
Assay [1] addresses T1, panel of ninety-seven kinases (Homo sapiens, UniProt P07949).
T1 construct: purchased DiscoverX; host or cells: T7 phage in E. coli (BL21-derived) for most kinases; HEK-293 for the rest
As to conditions: RET; read-out: % Ctrl @ 3 μM. A digest of the protocol: (§1)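 Site-directed competition binding: kinase (T7 phage-tagged or HEK-293-expressed, DNA-tagged) captured on immobilized biotinylated ligand beads, with compound at 3000 nM. Bound kinase eluted and quantified by qPCR. Reported as % Ctrl, with DMSO as 100% and control compound as 0%.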

Assay [2] addresses T2, panel of ninety-seven kinases (Homo sapiens, UniProt P50750).
T2 construct: purchased DiscoverX; host or cells: T7 phage in E. coli (BL21-derived) for most kinases; HEK-293 for the rest
As to conditions: CDK9; read-out: % Ctrl @ 3 μM. A digest of the protocol: as §1

Assay [3] concerns the target T3, panel of ninety-seven kinases (Homo sapiens, UniProt Q9HBH9).
T3 construct: purchased DiscoverX; host or cells: T7 phage in E. coli (BL21-derived) for most kinases; HEK-293 for the rest
To be noted: MKNK2; read-out: % Ctrl @ 3 μM. A digest of the protocol:
as §1

Assay [4] addresses T4, panel of ninety-seven kinases (Homo sapiens, UniProt Q15759).
T4 construct: purchased DiscoverX; host or cells: T7 phage in E. coli (BL21-derived) for most kinases; HEK-293 for the rest
To be noted: MAPK11; read-out: % Ctrl @ 3 μM. The procedure, abridged:
as §1

The target of assay [5] is T5, panel of ninety-seven kinases (Homo sapiens, UniProt O14965).
T5 construct: purchased DiscoverX; host or cells: T7 phage in E. coli (BL21-derived) for most kinases; HEK-293 for the rest
As to conditions: AURKA; read-out: % Ctrl @ 3 μM. The procedure, abridged:
as §1

The target in assay [6] is T6, panel of ninety-seven kinases (Homo sapiens, UniProt P24941).
T6 construct: purchased DiscoverX; host or cells: T7 phage in E. coli (BL21-derived) for most kinases; HEK-293 for the rest
To be noted: CDK2; read-out: % Ctrl @ 3 μM. A digest of the protocol: as §1

The target in assay [7] is T7, panel of ninety-seven kinases (Homo sapiens, UniProt Q9Y6R4).
T7 construct: purchased DiscoverX; host or cells: T7 phage in E. coli (BL21-derived) for most kinases; HEK-293 for the rest
To be noted: MAP3K4; read-out: % Ctrl @ 3 μM. The procedure, abridged:
as §1

Assay [8] has as its target T8, panel of ninety-seven kinases (Homo sapiens, UniProt P36897).
T8 construct: purchased DiscoverX; host or cells: T7 phage in E. coli (BL21-derived) for most kinases; HEK-293 for the rest
To be noted: TGFBR1; read-out: % Ctrl @ 3 μM. The procedure, abridged:
as §1

Assay [9] has as its target T9, panel of ninety-seven kinases (Homo sapiens, UniProt P04626).
T9 construct: purchased DiscoverX; host or cells: T7 phage in E. coli (BL21-derived) for most kinases; HEK-293 for the rest
To be noted: ERBB2; read-out: % Ctrl @ 3 μM. The procedure, abridged: as §1

Assay [10] concerns the target T10, panel of ninety-seven kinases (Homo sapiens, UniProt Q9BXA7).
T10 construct: purchased DiscoverX; host or cells: T7 phage in E. coli (BL21-derived) for most kinases; HEK-293 for the rest
To be noted: TSSK1B; read-out: % Ctrl @ 3 μM. A digest of the protocol:
as §1

The target of assay [11] is T11, panel of ninety-seven kinases (Homo sapiens, UniProt Q06187).
T11 construct: purchased DiscoverX; host or cells: T7 phage in E. coli (BL21-derived) for most kinases; HEK-293 for the rest
As to conditions: BTK; read-out: % Ctrl @ 3 μM. A digest of the protocol:
as §1

Assay [12] has as its target T12, panel of ninety-seven kinases (Homo sapiens, UniProt P11309).
T12 construct: purchased DiscoverX; host or cells: T7 phage in E. coli (BL21-derived) for most kinases; HEK-293 for the rest
As to conditions: PIM1; read-out: % Ctrl @ 3 μM. A digest of the protocol:
as §1

Assay [13] concerns panel of ninety-seven kinases. A digest of the protocol:
as §1

Assay [14] deals with T13, panel of ninety-seven kinases (Homo sapiens, UniProt O15530).
T13 construct: purchased DiscoverX; host or cells: T7 phage in E. coli (BL21-derived) for most kinases; HEK-293 for the rest
As to conditions: PDPK1; read-out: % Ctrl @ 3 μM. The procedure, abridged: as §1

Assay [15] deals with T14, panel of ninety-seven kinases (Homo sapiens, UniProt Q02763).
T14 construct: purchased DiscoverX; host or cells: T7 phage in E. coli (BL21-derived) for most kinases; HEK-293 for the rest
As to conditions: TEK; read-out: % Ctrl @ 3 μM. The procedure, abridged:
as §1

The target of assay [16] is T15, panel of ninety-seven kinases (Homo sapiens, UniProt Q86UX6).
T15 construct: purchased DiscoverX; host or cells: T7 phage in E. coli (BL21-derived) for most kinases; HEK-293 for the rest
To be noted: STK32C; read-out: % Ctrl @ 3 μM. The procedure, abridged: as §1

The target in assay [17] is T16, panel of ninety-seven kinases (Homo sapiens, UniProt Q13153).
T16 construct: purchased DiscoverX; host or cells: T7 phage in E. coli (BL21-derived) for most kinases; HEK-293 for the rest
To be noted: PAK1; read-out: % Ctrl @ 3 μM. The procedure, abridged: as §1

Assay [18] has as its target T17, panel of ninety-seven kinases (Homo sapiens, UniProt P27361).
T17 construct: purchased DiscoverX; host or cells: T7 phage in E. coli (BL21-derived) for most kinases; HEK-293 for the rest
To be noted: MAPK3; read-out: % Ctrl @ 3 μM. The procedure, abridged: as §1

For assay [19], the target named is T18, panel of ninety-seven kinases (Homo sapiens, UniProt P45983).
T18 construct: purchased DiscoverX; host or cells: T7 phage in E. coli (BL21-derived) for most kinases; HEK-293 for the rest
As to conditions: MAPK8; read-out: % Ctrl @ 3 μM. The procedure, abridged:
as §1

The target in assay [20] is T19, panel of ninety-seven kinases (Homo sapiens, UniProt P16234).
T19 construct: purchased DiscoverX; host or cells: T7 phage in E. coli (BL21-derived) for most kinases; HEK-293 for the rest
To be noted: PDGFRA; read-out: % Ctrl @ 3 μM. A digest of the protocol: as §1

The target of assay [21] is T20, panel of ninety-seven kinases (Homo sapiens, UniProt P45984).
T20 construct: purchased DiscoverX; host or cells: T7 phage in E. coli (BL21-derived) for most kinases; HEK-293 for the rest
As to conditions: MAPK9; read-out: % Ctrl @ 3 μM. A digest of the protocol:
as §1

With `CN(C)CCNC(=O)c1ccc(-c2ccc(-c3ccc(Cl)cc3)n2-c2ccccc2C(F)(F)F)cc1` (single isomer, unassigned) [Atropisomer A-2, 4-[5-(4-chlorophenyl)-1-[2-(trifluoromethyl)phenyl]pyrrol-2-yl]-N-[2-(dimethylamino)ethyl]benzamide], the percent of control kinase binding to immobilized ligand at 3 µM in assay [1] is 95%; in [2], 97%; in [3] it was 85%; in [4], 99%; in [5], 98%; in assay [6] it was 94%. The percent of control kinase binding to immobilized ligand at 3 µM was 93% in assay [7]; 95% in [8]; 66% in assay [9]; 100% in assay [10]; 94% in assay [11]; 99% in [12]. In addition, the percent of control kinase binding to immobilized ligand at 3 µM in [14] was determined as 96%; in assay [15] it was 99%; in [16] it was 100%; in assay [17], 87%; in assay [18], 99%; in assay [19], 77%. In addition, the percent of control kinase binding to immobilized ligand at 3 µM was 100% in assay [20] and 80% in assay [21]. Further, the “% Ctrl @ 3 μM” value in assay [13] (EGFR (variants not told apart)) is reported as 100%; in assay [13] (KIT (three lines, variants not told apart)), 100%. In addition, the “binding activity against panel kinases (in words)” value in assay [13] (ninety-seven kinases, 3 μM) was “poor or non-existent binding activity”.
